Patent US20230124492A1, “COMPOSITIONS AND METHODS FOR SUBSTITUTED 7-(PIPERAZIN-1-YL)PYRAZOLO[1,5-A]PYRIMIDINE ANALOGS AS INHIBITORS OF KRAS” (The Board of Regents of the University of Texas System, priority 2019, published 2023)

Legend:
[1] = target: T1, G12D KRAS (Homo sapiens, UniProt P01116, G12D); test: Intrinsic fluorescence (IF) binding affinity, G12D KRAS bound to GNP
Experimental: (§1) FIGS. 2A-I illustrates the measurements of binding affinity of ligands to wild type (WT) or […] KRAS bound to the GTP analogue GNP and, for selected exemplary embodiments, effect of ligands on the rate of SOS-mediated nucleotide exchange reaction. Binding affinity was determined using intrinsic fluorescence, which made use of the ligands' intrinsic fluorescence and the accompanying change (decrease or increase in intensity) upon binding to KRAS.
(§2) FIGS. 2A-I illustrates the measurements of binding affinity of ligands to wild type (WT) or G12D KRAS bound to the GTP analogue GNP and, for selected exemplary embodiments, effect of ligands on the rate of SOS-mediated nucleotide exchange reaction, Binding affinity was determined using intrinsic fluorescence, which made use of the ligands' intrinsic fluorescence and the accompanying change (decrease or increase in intensity) upon binding to KRAS.
(§3) Solutions of ligand (0 to 50 μM) are mixed with equal volumes of KRAS (fixed concentration) and fluorescence spectra are obtained. The difference spectra (between KRAS-ligand mixture and ligand alone) are plotted and the area under the curve is obtained. Kd is estimated from the plot of area versus the ligand concentration. SOS-mediated nucleotide rate was monitored using the fluorescence intensity increase of BODIPY-GTP (B GTP) as it displaces GDP from KRAS. The reaction mixture (100 μL, 96 well plate) contained 0.5 μM K-Ras-GDP, 0.5 μm B-GTP, 0.5 μM SOS and varying concentrations of ligands (0 to 25 μM). B-GTP and SOS mixture was added just before measurements(excitation: 485 nm, emission: 510 nm; TECAN Infinite 200 plate reader). The reaction was monitored for 1 hour. The experiments were conducted with minimal light, Fluorescence intensities were normalized with respect to the value obtained at 120 s and the traces were fit with exponential function (Igor Pro, Wavemetrics).
(§4) Note: For FIGS. 1A-H 1 (as well as one of the curves in FIGS. 2A-I), dissociation constant (Kd) was determined using either Microscale Thermophoresis (MST) or Intrinsic Fluorescence (IF) assay. MST assay uses fluorescence to monitor movement of molecules in response to temperature gradient created by infrared laser.

[2] = target: T2, WT KRAS (Homo sapiens, UniProt P01116); test: Intrinsic nucleotide exchange assay, WT KRAS; format: biochemical; conditions: for Intrinsic nucleotide exchange WT, single-dose test (effect / No effect): 25 microMolar ligand; for EC50: intrinsic nucleotide exchange, dose-response
T2 sequence (P01116 1-188 isoform P01116-2): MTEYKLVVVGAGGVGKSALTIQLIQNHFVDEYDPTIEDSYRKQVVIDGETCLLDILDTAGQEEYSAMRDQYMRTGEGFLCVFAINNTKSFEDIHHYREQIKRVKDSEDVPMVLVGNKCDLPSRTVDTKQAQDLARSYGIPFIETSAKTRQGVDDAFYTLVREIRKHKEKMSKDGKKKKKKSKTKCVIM
Experimental: (§5) In other experiments, the compounds disclosed herein can be tested for their abilities to affect rates of intrinsic and SOS-catalyzed nucleotide exchange and release. These assays use fluorescently-labeled BODIPY-GDP (BGDP) and BODIPY-GTP (BGTP), which have increased fluorescence intensity when bound to KRAS. Rate of nucleotide exchange is determined by rate of increase in fluorescence after BGTP is added to GDP-KRAS in the absence or presence of SOS Rate of nucleotide release is determined from rate of decrease in, fluorescence when excess GTP is added to KRAS loaded with BGDP in the presence or absence of SOS, where SOS is “Sons of Sevenless” referring to a set of genes encoding guanine nucleotide exchange factors.

[3] = target: T2, WT KRAS; test: SOS-mediated nucleotide exchange assay, WT KRAS; format: biochemical; conditions: for SOS-mediated nucleotide exchange WT, single-dose test (effect / No effect): 25 microMolar ligand; for EC50: SOS-mediated nucleotide exchange, dose-response
Experimental: as §5, §3

[4] = target: T1, G12D KRAS; test: Microscale thermophoresis (MST) Kd, G12D KRAS; format: binding
Experimental: (§6) Measurement of compound binding affinity to KKRAS using microscale thermophoresis (MST). MST is based on the movement of molecules in response to temperature gradient. […] KRAS was buffer-exchanged in the labeling buffer (40 mM HEPES, pH 7.5, 5 mM MgCl2, and 500 mM NaCl) using a spin column (provided in the kit) The concentration of the eluted protein was adjusted (10 to 20 μM) and 2-3 fold concentration of the dye (in labeling buffer) was added (200 μL final volume), The solution was incubated for 30 minutes at room temperature in the dark. Labeled KRAS was purified using the column provided in the kit or MST measurements, 16 point serial dilutions of ligands were made in MST Assay Buffer (40 mM HEPES, pH 7.5, 5 mM MgCl2, 100 mM NaCl+0.05% Tween-20+2-4% DMSO) and added to 100 nM KRAS. The solutions were loaded in capillaries and measurements were done using 20% LED power and 40% MST power. The data were fit in Igor Pro using Hill equation or the function in the instrument software.
(§7) Microscale thermophoresis (MST) assays were used to measure the affinity of lead compound analogs for KRAS. In a typical experiment, 100 nM KRAS labeled with a dye amine-reactive red NT-647 from NanoTemper) was mixed with different concentrations of ligand and incubated in a binding buffer (40 mM HEPES, pH 7.5, 5 mM MgCl2, 150 mM NaCl, 0.05% polysorbate 20, and 2% DMSO) at room temperature for 10 min before being loaded into a capillary. Thermophoresis is carried out and dissociation constant calculated by monitoring changes in fluorescence intensity. A monolith NT.115 Reader from NanoTemper can be used for MST experiments, with 40% MST and 20% LED power.
as §4

[5] = target: wild type (WT) KRAS (Homo sapiens, UniProt P01116); test: Intrinsic fluorescence (IF) binding affinity, WT KRAS bound to GNP
Sequence of wild type (WT) KRAS (P01116 1-188 isoform P01116-2): as above
Experimental: as §1, §2, §3, §4

[6] = target: KRAS (Homo sapiens, UniProt P01116, G12D); test: Microscale thermophoresis (MST) binding affinity to KRAS (Table 1); conditions: 100 nM labeled KRAS, read-out: kD (dissociation constant)
Sequence of KRAS (P01116 whole entry G12D): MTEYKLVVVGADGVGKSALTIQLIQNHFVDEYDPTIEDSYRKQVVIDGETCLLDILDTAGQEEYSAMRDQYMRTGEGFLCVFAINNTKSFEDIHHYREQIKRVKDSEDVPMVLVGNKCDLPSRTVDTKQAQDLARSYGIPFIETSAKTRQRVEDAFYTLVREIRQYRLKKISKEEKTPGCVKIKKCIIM
Experimental: as §6, §7
Dissociation constants (IQ)) calculated from the thermophoresis results of selected compounds according to the present disclosure are presented in Table 1 below.
as §4

T1 sequence (P01116 1-188 isoform P01116-2 G12D): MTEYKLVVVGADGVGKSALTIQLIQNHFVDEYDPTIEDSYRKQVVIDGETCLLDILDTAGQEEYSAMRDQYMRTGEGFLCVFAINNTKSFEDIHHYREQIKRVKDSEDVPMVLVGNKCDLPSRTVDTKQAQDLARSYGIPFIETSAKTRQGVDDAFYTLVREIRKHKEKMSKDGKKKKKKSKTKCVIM

Cc1nn2c(N3CCN(CCO)CC3)cc(-c3cc(F)cc(F)c3)nc2c1-c1ccccc1 [C33″]
Kd [1]: 79 ± 78 µM | Intrinsic nucleotide exchange WT, single-dose test (effect / No effect) [2]: effect in single- dose @ 25 uM | SOS-mediated nucleotide exchange WT, single-dose test (effect / No effect) [3]: No effect in single dose @ 25 uM

Cc1nn2c(N3CCN(CCO)CC3)cc(-c3nccn3C)nc2c1-c1ccccc1 [C23″]
Kd [4]: > 200 µM | Intrinsic nucleotide exchange WT, single-dose test (effect / No effect) [2]: effect in single- dose @ 25 uM | SOS-mediated nucleotide exchange WT, single-dose test (effect / No effect) [3]: effect in single- dose @ 25 uM

Cc1nn2c(N3CCN(CCO)CC3)cc(-c3ccccc3)nc2c1-c1ccccc1 [C11″]
Kd [4]: 0.87 ± 0.1 µM | Kd [1]: 4.54 ± 0.1 µM

Cc1nn2c(N3CCC(CCO)CC3)cc(-c3ccc(F)cc3)nc2c1-c1ccccc1 [Compound C39]
Kd [5]: 39.5 ± 1.9 µM | Kd [1]: 22.9 ± 2.2 µM

COc1ccc(-c2nn3c(N4CCN(CCO)CC4)cc(-c4ccccc4)nc3c2-c2ccccc2)cc1 [Compound C37]
Kd [5]: 22.6 ± 0.3 µM | Kd [1]: 11.8 ± 0.2 µM

COCCN1CCN(c2cc(-c3ccccc3)nc3c(-c4ccccc4)c(C)nn23)CC1 [C17″]
Kd [4]: > 76 µM

COCCN1CCN(c2cc(-c3ccccc3)nc3c(-c4ccccc4)c(C)nn23)CC1 [Compound C6]
Kd [6]: > 76 µM

Cc1nn2c(N3CCN(CCO)CC3)cc(-c3ccc(F)cc3)nc2c1-c1ccccc1 [C21″]
Kd [4]: 0.52 ± 0.2 µM | Kd [5]: 4.6 ± 0.2 µM | Kd [1]: 6.8 ± 0.5 µM | EC50 [2]: 34 ± 6.4 µM | EC50 [3]: 18.8 ± 3.3 µM

Cc1cc(NCCN(C)C)n2nc(C)c(-c3ccccc3)c2n1 [Compound C16]
Kd [4]: > 200 µM

OCCN1CCN(c2cc(-c3ccccc3)nc3c(-c4ccccc4)c(C(F)(F)F)nn23)CC1 [C32″]
Intrinsic nucleotide exchange WT, single-dose test (effect / No effect) [2]: effect in single- dose @ 25 uM | SOS-mediated nucleotide exchange WT, single-dose test (effect / No effect) [3]: effect in single- dose @ 25 uM

OCCN1CCN(c2cc(-c3ccccc3)nc3c(-c4ccccc4)c(-c4ccccc4)nn23)CC1 [Compound C3]
Kd [6]: 0.88 ± 0.36 µM

Cc1nn2c(N3CCN(CCO)CC3)cc(-c3ccc(O)cc3)nc2c1-c1ccccc1 [C30″]
Kd [5]: 12.2 ± 0.4 µM | Kd [1]: 18.4 ± 10 µM | EC50 [3]: 15.9 ± 3.4 µM

OCCN1CCN(c2cc(-c3ccccc3)nc3c(-c4ccccc4)c(-c4ccc(O)cc4)nn23)CC1 [Compound C38]
Kd [5]: 19.1 ± 0.1 µM | Kd [1]: 63.1 ± 5.3 µM

Cc1nn2c(NCCN(C)C)cc(-c3ccccc3)nc2c1-c1ccccc1 [Compound C4]
Kd [6]: 0.99 ± 0.14 µM

CCc1nn2c(N3CCN(CCO)CC3)cc(-c3ccccc3)nc2c1-c1ccccc1 [C26″]
Intrinsic nucleotide exchange WT, single-dose test (effect / No effect) [2]: effect in single- dose @ 25 uM | SOS-mediated nucleotide exchange WT, single-dose test (effect / No effect) [3]: effect in single- dose @ 25 uM

Cc1nn2c(N3CCC(CCO)CC3)cc(-c3ccccc3)nc2c1-c1ccccc1 [Compound C40]
Kd [5]: 63.1 ± 5.3 µM | Kd [1]: 25.7 ± 0.2 µM

CCOC(=O)N1CCN(c2cc(-c3ccccc3)nc3c(-c4ccccc4)c(C)nn23)CC1 [C27″]
SOS-mediated nucleotide exchange WT, single-dose test (effect / No effect) [3]: no effect in single dose @ 25 uM

COc1ccc(-c2cc(N3CCN(CCO)CC3)n3nc(C)c(-c4ccccc4)c3n2)cc1 [C25″]
SOS-mediated nucleotide exchange WT, single-dose test (effect / No effect) [3]: effect in single- dose @ 25 uM

COc1ccccc1N1CCN(c2cc(-c3ccccc3)nc3c(-c4ccccc4)c(C)nn23)CC1 [Compound C7]
Kd [6]: > 86 µM

Cc1nn2c(N3CCN(CCO)CC3)nc(-c3ccccc3)nc2c1-c1ccccc1 [Compound C41]
Kd [5]: ~20 µM | EC50 [2]: 15 to 25 µM

OCCN1CCN(c2cc(-c3ccccc3)nc3c(-c4ccccc4)c(C4CC4)nn23)CC1 [C29″]
SOS-mediated nucleotide exchange WT, single-dose test (effect / No effect) [3]: effect in single- dose @ 25 uM

COCc1nn2c(N3CCN(CCO)CC3)cc(-c3ccccc3)nc2c1-c1ccccc1 [Compound C43]
Kd [5]: 5 to 15 µM

Cc1cc(N2CCN(CCO)CC2)n2nc(C)c(-c3ccccc3)c2n1 [C13″]
EC50 [2]: 28.8 ± 4 µM | EC50 [3]: 57.8 ± 4 µM

OCCN1CCN(c2cc(-c3ccccc3)nc3c(-c4ccccc4)c(-c4cc[nH]c4)nn23)CC1 [Compound C36]
Kd [5]: 20.6 ± 0.4 µM | Kd [1]: 22.4 ± 8 µM

OCCN1CCN(c2cc(-c3ccccc3)nc3c(-c4ccccc4)c(-c4ccccc4)nn23)CC1 [C14″]
Kd [4]: 0.88 ± 0.4 µM | Kd [5]: 12.3 ± 0.1 µM | Kd [1]: 11.2 ± 0.2 µM | EC50 [2]: 12.4 ± 4.8 µM

Cc1cc2nc(-c3ccccc3)cc(N3CCN(CCO)CC3)n2n1 [Compound C44]
Kd [5]: 5 to 15 µM

Cc1nn2c(N3CCN(CCO)CC3)cc(-c3cc(O)cc(O)c3)nc2c1-c1ccccc1 [C35″]
Kd [5]: 8.4 ± 0.2 µM | Kd [1]: 21.6 ± 4 µM | Intrinsic nucleotide exchange WT, single-dose test (effect / No effect) [2]: effect in single- dose @ 25 uM | SOS-mediated nucleotide exchange WT, single-dose test (effect / No effect) [3]: No effect in single dose @ 25 uM

Cc1nn2c(N3CCN(CCO)CC3)cc(-c3ccncc3)nc2c1-c1ccccc1 [C22″]
Kd [4]: > 100 µM | SOS-mediated nucleotide exchange WT, single-dose test (effect / No effect) [3]: no effect in single dose @ 25 uM

COc1ccccc1N1CCN(c2cc(-c3ccccc3)nc3c(-c4ccccc4)c(C)nn23)CC1 [Compound C18]
Kd [4]: > 86 µM

Cc1nn2c(N3CCN(CCO)CC3)cc(-c3ccccc3)nc2c1-c1cc(F)cc(F)c1 [C28″]
Kd [5]: 21.7 ± 0.4 µM | Kd [1]: 23.5 ± 0.8 µM | Intrinsic nucleotide exchange WT, single-dose test (effect / No effect) [2]: effect in single- dose @ 25 uM | SOS-mediated nucleotide exchange WT, single-dose test (effect / No effect) [3]: No effect in single dose @ 25 uM

Cc1nn2c(NCCN(C)C)cc(-c3ccccc3)nc2c1-c1ccccc1 [Compound C15]
Kd [4]: 0.99 ± 0.1 µM

Cc1nn2c(NCCCN(C)C)cc(-c3ccccc3)nc2c1-c1ccccc1 [Compound C45]
Kd [5]: 28.3 ± 5.4 µM

Cc1nn2c(N3CCN(CCO)CC3)cc(-c3ccccc3)nc2c1-c1ccc(O)cc1 [C31″]
Intrinsic nucleotide exchange WT, single-dose test (effect / No effect) [2]: No effect in single dose @ 25 uM | SOS-mediated nucleotide exchange WT, single-dose test (effect / No effect) [3]: No effect in single dose @ 25 uM
